In patent US20230365571A1, “COMPOUNDS AND COMPOSITIONS AS Sppl2a INHIBITORS” (Novartis AG, priority 2020, published 2023) one finds IC50 data, which are given here for 16 compounds.

Test [1] concerns the target T1, human SPPL2a (Homo sapiens, UniProt Q8TCT8).
T1 sequence (Q8TCT8 26-520): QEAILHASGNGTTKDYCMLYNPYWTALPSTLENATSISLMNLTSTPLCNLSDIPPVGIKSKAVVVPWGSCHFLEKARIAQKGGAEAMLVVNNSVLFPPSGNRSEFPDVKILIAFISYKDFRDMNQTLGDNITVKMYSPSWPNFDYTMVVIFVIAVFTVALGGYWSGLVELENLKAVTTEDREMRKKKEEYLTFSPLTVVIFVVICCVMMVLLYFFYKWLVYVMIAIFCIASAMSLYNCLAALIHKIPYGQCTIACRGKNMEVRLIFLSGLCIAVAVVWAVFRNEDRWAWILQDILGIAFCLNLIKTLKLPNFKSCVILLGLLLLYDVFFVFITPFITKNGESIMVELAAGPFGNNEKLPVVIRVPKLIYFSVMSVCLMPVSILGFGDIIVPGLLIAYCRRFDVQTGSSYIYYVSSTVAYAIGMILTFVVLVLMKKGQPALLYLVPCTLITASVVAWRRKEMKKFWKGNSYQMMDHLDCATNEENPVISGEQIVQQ
In words: Sppl2a RGA (reporter gene assay) in HEK293 cells. It counts as cell-based. The arrangement: expressed in transfected cells; host or cells: HEK293 (transient). To be noted: NT-TNF-VP16-Gal4 substrate, Gal4-luciferase reporter, 24 h. In short, it runs like this: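 Cleavage of a membrane-bound TNF N-terminal–VP16-Gal4 substrate drives Gal4-luciferase expression in transiently transfected HEK293 cells also expressing human SPPL2a. Compounds incubated 24 h, 37 °C, 5% CO2; luminescence read, normalized and plotted against concentration for IC50.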

Test [2] addresses T1, human SPPL2a. The experiment in a line: Sppl2a TL (translocation) imaging assay in U-2 OS cells. It counts as cell-based. More on the design: expressed in transfected cells. The conditions noted are these: U-2 OS cells expressing human SPPL2a and EGFP-TNFα(aa1-76) NTF substrate; 24 h. The method in brief:
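U-2 OS cells stably expressing human SPPL2a plus doxycycline-induced EGFP-TNFα(aa1-76) NTF, treated 24 h at 37 °C with inhibitor (100 μM–1 nM, 11 points, 0.9% DMSO, 5 μg/mL doxycycline). Imaging of nuclear-minus-cytoplasmic EGFP intensity; % inhibition versus 0.5 μM LY-411,575 and DMSO, IC50 by nonlinear regression; CC50 from cell count.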

By IC50 is commonly meant the concentration needed to halve the response being measured. In the case of `CCc1cc(-c2cc(NC(=O)C[C@@H](C)C(=O)N[C@@H]3C(=O)N4CCCN4Cc4ccccc43)n(C)n2)on1` [Example 86, (R)-NA-(3-(3-Ethylisoxazol-5-yl)-1-methyl-1H-pyrazol-5-yl)-2-methyl-N^1-((S)-11-oxo-2,3,10,11-tetrahydro-1H,5H-benzo[d]pyrazolo [1,2-a][1,2]diazepin-10-yl)succinamide], the IC50 came to 4 nM in test [1] and 10 nM in test [2].
In the case of `C[C@H](CC(=O)Nc1cc(-c2ccc(F)cn2)nn1C)C(=O)N[C@@H]1C(=O)N2CCCN2Cc2ccccc21` [Example 87, (R)-N^4-(3-(5-Fluoropyridin-2-yl)-1-methyl-1H-pyrazol-5-yl)-2-methyl-N^1-((S)-11-oxo-2,3,10,11-tetrahydro-1H,5H-benzo[d]pyrazolo [1,2-a][1,2]diazepin-10-yl)succinamide], the IC50 in test [1] and in test [2] was 10 nM throughout.
`C[C@H](CC(=O)Nc1cn(-c2ccc(C(F)(F)F)nc2)nc1Cl)C(=O)N[C@@H]1C(=O)N2CCCN2Cc2ccccc21` [Example 88, (R)-N^4-(3-Chloro-1-(6-(trifluoromethyl)pyridin-3-yl)-1H-pyrazol-4-yl)-2-methyl-N^1-((S)-11-oxo-2,3,10,11-tetrahydro-1H,5H-benzo[d]pyrazolo [1,2-a][1,2]diazepin-10-yl)succinamide]: the figures for the IC50 in test [1] and in test [2] were 7 nM and 10 nM, respectively.
On to `Cc1nn(-c2ccc(C(F)(F)F)nc2)cc1NC(=O)C[C@@H](C)C(=O)N[C@@H]1C(=O)N2CCCN2Cc2ccccc21` [Example 92, (R)-2-Methyl-N^4-(3-methyl-1-(6-(trifluoromethyl)pyridin-3-yl)-1H-pyrazol-4-yl)-N^1-((S)-11-oxo-2,3,10,11-tetrahydro-1H,5H-benzo[d]pyrazolo [1,2-a][1,2]diazepin-10-yl)succinamide], for which the IC50 amounted to 11 nM in test [1] and 12 nM in test [2].
As for `C[C@H](CC(=O)Nc1sc(-c2cnn(C3COC3)c2)nc1Cl)C(=O)N[C@@H]1C(=O)N2CCCN2Cc2ccccc21` [Example 95, (R)-N^4-(4-Chloro-2-(1-(oxetan-3-yl)-1H-pyrazol-4-yl)thiazol-5-yl)-2-methyl-N^1-((S)-11-oxo-2,3,10,11-tetrahydro-1H,5H-benzo[d]pyrazolo [1,2-a][1,2]diazepin-10-yl)succinamide], the figures for the half-maximal inhibitory concentration (IC50) in test [1] and in test [2] were 23 nM and 12 nM, respectively.
With `C[C@H](CC(=O)Nc1cc(-c2ccco2)nn1C1CC1)C(=O)N[C@@H]1C(=O)N2CCCN2Cc2ccccc21` [Example 96, (R)-N^4-(1-Cyclopropyl-3-(furan-2-yl)-1H-pyrazol-5-yl)-2-methyl-N^1-((S)-11-oxo-2,3,10,11-tetrahydro-1H,5H-benzo[d]pyrazolo [1,2-a][1,2]diazepin-10-yl)succinamide], the IC50 in test [1] is 28 nM; in test [2], 12 nM.
For `COc1ccc(-c2cc(NC(=O)C[C@@H](C)C(=O)N[C@@H]3C(=O)N4CCCN4Cc4ccccc43)n(C)n2)cn1` [Example 97, (R)-N^4-(3-(6-Methoxypyridin-3-yl)-1-methyl-1H-pyrazol-5-yl)-2-methyl-N^1-((S)-11-oxo-2,3,10,11-tetrahydro-1H,5H-benzo[d]pyrazolo [1,2-a][1,2]diazepin-10-yl)succinamide] the same measures were 15 nM and 13 nM.
Regarding `C[C@H](CC(=O)Nc1cc(-c2cncc(C(F)(F)F)c2)nn1C)C(=O)N[C@@H]1C(=O)N2CCCN2Cc2ccccc21` [Example 98, (R)-2-Methyl-N^4-(1-methyl-3-(5-(trifluoromethyl)pyridin-3-yl)-1H-pyrazol-5-yl)-N^1-((S)-11-oxo-2,3,10,11-tetrahydro-1H,5H-benzo[d]pyrazolo [1,2-a][1,2]diazepin-10-yl)succinamide], the IC50 stood at 8 nM in test [1] and 14 nM in test [2].
Regarding `O=C(C[C@H](C(=O)N[C@@H]1C(=O)N2CCCN2C(=O)c2ccccc21)C1CC1)Nc1sc(-c2cnn(C(F)F)c2)nc1Cl` [Example 104, (S)-N^4-(4-Chloro-2-(1-(difluoromethyl)-1H-pyrazol-4-yl)thiazol-5-yl)-2-cyclopropyl-N^1-((S)-5,11-dioxo-2,3,10,11-tetrahydro-1H,5H-benzo[d]pyrazolo [1,2-a][1,2]diazepin-10-yl)succinamide], the IC50 in test [1] and in test [2] was 17 nM in each case.
For `Cc1ccc(-c2cc(NC(=O)C[C@@H](C)C(=O)N[C@@H]3C(=O)N4CCCN4Cc4ccccc43)n(C)n2)cn1` [Example 105, (R)-2-Methyl-N^4-(1-methyl-3-(6-methylpyridin-3-yl)-1H-pyrazol-5-yl)-N^1-((S)-11-oxo-2,3,10,11-tetrahydro-1H,5H-benzo[d]pyrazolo [1,2-a][1,2]diazepin-10-yl)succinamide], the IC50 in test [1] stood at 23 nM; in test [2], 18 nM.
In the case of `O=C(C[C@H](C(=O)N[C@@H]1C(=O)N2CC3(CC3)CN2C(=O)c2ccccc21)C1CC1)Nc1sc(-c2ccc(C(F)(F)F)nc2)nc1Cl` [Example 106, (S)-N^4-(4-Chloro-2-(6-(trifluoromethyl)pyridin-3-yl)thiazol-5-yl)-2-cyclopropyl-N^1-((S)-5,11-dioxo-10,11-dihydro-1H,3H,5H-spiro[benzo[d]pyr-azolo[1,2-a][1,2]diazepine-2,1′-cyclopropan]-10-yl)succinamide], the figures for the IC50 in test [1] and in test [2] were 8 nM and 10 nM, respectively.
In the case of `O=C(C[C@H](C(=O)N[C@@H]1C(=O)N2CCCN2C(=O)c2ccccc21)C1CC1)Nc1sc(-c2ccc(C(F)(F)F)nc2)nc1Cl` [Example 107, (S)-N^4-(4-Chloro-2-(6-(trifluoromethyl)pyridin-3-yl)thiazol-5-yl)-2-cyclopropyl-N^1-((S)-5,11-dioxo-2,3,10,11-tetrahydro-1H,5H-benzo[d]pyrazolo [1,2-a][1,2]diazepin-10-yl)succinamide], the IC50 in test [1] worked out at 11 nM; in test [2], 15 nM.
With `C[C@H](CC(=O)Nc1sc(-c2ccc(C(F)(F)F)nc2)nc1Cl)C(=O)N[C@@H]1C(=O)N2CCCN2Cc2ccccc21` [Example 108, (R)-N^4-(4-Chloro-2-(6-(trifluoromethyl)pyridin-3-yl)thiazol-5-yl)-2-methyl-N^1-((S)-11-oxo-2,3,10,11-tetrahydro-1H,5H-benzo[d]pyrazolo [1,2-a][1,2]diazepin-10-yl)succinamide], the half-maximal inhibitory concentration (IC50) in test [1] and in test [2] was 3 nM in each case.
For `C[C@H](CC(=O)Nc1cc(C(=O)Nc2ccccc2F)nn1C)C(=O)N[C@@H]1C(=O)N2CCCN2Cc2ccccc21` [Example 109, (R)—N^4-(3-((2-fluorophenyl)carbamoyl)-1-methyl-1H-pyrazol-5-yl)-2-methyl-N^1—((S)-11-oxo-2,3,10,11-tetrahydro-1H,5H-benzo[d]pyrazolo[1,2-a][1,2]diazepin-10-yl)succinamide], the results for the IC50 in test [1] and in test [2] were 3 nM and 2 nM, respectively.
In the same order, the values of `Cc1cccc(C)c1NC(=O)c1cc(NC(=O)C[C@@H](C)C(=O)N[C@@H]2C(=O)N3CCCN3Cc3ccccc32)n(C)n1` [Example 110] are 20 nM and 15 nM.
For `C[C@H](Cc1nc2ccccc2[nH]1)C(=O)N[C@@H]1C(=O)N2CCCN2Cc2ccccc21` [Example 111, (R)-3-(1H-benzo[d]imidazol-2-yl)-2-methyl-N—((S)-11-oxo-2,3,10,11-tetrahydro-1H,5H-benzo[d]pyrazolo[1,2-a][1,2]diazepin-10-yl)propanamide] the same measures were 77 nM and 666 nM.
